The compounds below were run against T1, AHR (Homo sapiens, UniProt P35869) (assay: DRE-Luciferase Reporter Assay, HepG2 AhR-Lucia reporter cells). Settings: with AHR activating ligand at EC50, read-out: HepG2-Luc IC50.
T1 construct: other cell line with a DRE-luciferase reporter stably transfected; endogenous in cells; host or cells: HepG2 AhR-Lucia reporter cells
T1 sequence (P35869 11-848): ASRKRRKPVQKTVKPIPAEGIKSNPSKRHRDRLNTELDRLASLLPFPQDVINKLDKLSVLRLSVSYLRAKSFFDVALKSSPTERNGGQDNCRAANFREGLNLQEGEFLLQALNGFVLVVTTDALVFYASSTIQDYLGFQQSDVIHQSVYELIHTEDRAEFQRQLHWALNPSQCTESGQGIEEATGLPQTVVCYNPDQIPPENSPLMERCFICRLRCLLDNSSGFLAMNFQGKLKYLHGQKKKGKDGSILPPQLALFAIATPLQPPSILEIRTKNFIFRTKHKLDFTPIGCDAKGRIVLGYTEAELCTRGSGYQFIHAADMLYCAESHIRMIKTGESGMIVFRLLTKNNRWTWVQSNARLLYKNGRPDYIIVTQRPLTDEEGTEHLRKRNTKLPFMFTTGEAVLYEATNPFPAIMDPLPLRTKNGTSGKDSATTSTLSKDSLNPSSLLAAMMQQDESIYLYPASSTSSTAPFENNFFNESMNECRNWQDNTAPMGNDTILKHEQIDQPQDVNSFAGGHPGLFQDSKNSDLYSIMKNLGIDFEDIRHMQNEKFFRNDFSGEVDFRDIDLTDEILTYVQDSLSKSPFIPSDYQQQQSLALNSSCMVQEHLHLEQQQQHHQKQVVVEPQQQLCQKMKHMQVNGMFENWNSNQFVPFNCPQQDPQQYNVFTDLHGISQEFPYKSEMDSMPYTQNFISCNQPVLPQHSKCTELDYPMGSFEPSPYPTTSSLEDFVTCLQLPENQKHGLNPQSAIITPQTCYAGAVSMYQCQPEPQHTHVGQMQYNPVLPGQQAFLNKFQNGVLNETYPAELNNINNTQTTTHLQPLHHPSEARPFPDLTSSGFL
Format: cell-based
Excerpt: AHR binds to Dioxin Responsive Elements (DRE) upstream of genes that it activates. One measure of AHR activity is activation of a reporter gene, such as luciferase, downstream of one or multiple DRE elements. Luciferase activity will reflect activation and inhibition of AHR in the cells expressing his reporter. 20000 Human HepG2 liver carcinoma—AhR-Lucia reporter cells or Human HT29 colon adenocarcinoma—AhR reporter cells or other cell line with a DRE-luciferase reporter stably transfected were plated in Eagle's Minimal Essential Medium, 10% heat-inactivated FBS, 1× non-essential amino acids Pen-Strep (10,000 U/mL) and Normocin (100 ug/mL) in plates (96-well, 384-well or other plates) and incubated overnight at 37° C. in a CO2 incubator and treated with and without AhR antagonists at a log dilution starting at 100 uM.
After 1 hr that cells were plated an AHR activating ligand, such as TCDD, kynurenine, ITE (2-(1H-indole-3-ylcarbonyl)-4-thiazolecarboxylic methyl ester), VAF347, BNF (beta-naphthoflavone), FICZ (6-formylindolo(3,2-b) carbazole) or other AHR ligands at their specific EC50 concentration, were added to the cells with or without AHR antagonist.
Cells were incubated for 24 or 48 hours or another time point and then, supernatant was analyzed for determination of luciferase activity as a read-out of the AHR activation or inhibition. Luciferase was measured with the commercial kit QUANTI-Luc™ assay solution kit from Invivogen following the manufacturer's instructions.
The level of luciferase with only agonist ligand added was the maximum signal while the luciferase with […] was the minimum signal. IC50 values were determined as the concentration which inhibits half of the luciferase activity.

| Compound | IC50 [nM] |
| --- | --- |
| C[C@@H](CO)n1cnc2c(-c3cnsc3)nc(-c3cnsc3)cc2c1=O [Compound 56] | 100 to 500 |
| Cn1cc(-c2cc3c(=O)n(CC(C)(C)O)cnc3c(-c3cnn(C)c3)n2)cn1 [Compound 19] | > 500 |
| C[C@@H](CO)n1cnc2c(-c3ccncc3)nc(-c3ccc(C(F)(F)F)nc3)cc2c1=O [Compound 4] | 100 to 500 |
| CC(C)(O)Cn1cnc2c(-c3cccnc3)nc(-c3cccnc3)cc2c1=O [Compound 59] | > 500 |
| O=c1c2cc(-c3ccc(OC(F)(F)F)cc3)nc(-c3cccnc3)c2ncn1CCO [Compound 72] | < 100 |
| Cc1cc(C(F)(F)F)ncc1-c1cc2c(=O)n([C@@H](C)CO)cnc2c(-c2cccnc2)n1 [Compound 75] | 100 to 500 |
| CC(C)(O)Cn1cnc2c(-c3cccnc3)nc(-c3cnc(C(F)(F)F)s3)cc2c1=O [Compound 87] | < 100 |
| O=c1c2cc(-c3cccnc3)nc(-c3cccnc3)c2ncn1CC(O)C(F)(F)F (stereo not shown) [Compound 10] | 100 to 500 |
| Cc1ncc(-c2cc3c(=O)n([C@@H](C)CO)cnc3c(-c3cccnc3)n2)cn1 [Compound 93] | 100 to 500 |
| C[C@@H](n1cnc2c(-c3cccc(F)c3)nc(-c3ccc(Cl)cc3)cc2c1=O)C(C)(C)O [Compound 39] | < 100 |
| O=c1c2cc(-c3ccc(Cl)cc3)nc(-c3cccnc3)c2ncn1CC(O)C(F)(F)F (stereo not shown) [Compound 13] | < 100 |
| CC(C)(O)Cn1cnc2c(-c3cccnc3)nc(-c3cnc(C(F)(F)F)nc3)cc2c1=O [Compound 96] | < 100 |
| C[C@@H](CO)n1cnc2c(-c3cccnc3)nc(Cl)cc2c1=O [Compound 11, (S)-6-chloro-3-(1-hydroxypropan-2-yl)-8-(pyridin-3-yl)pyrido[3,4-d]pyrimidin-4(3H)-one] | > 500 |
| C[C@@H](CO)n1cnc2c(-c3cccnc3)nc(-c3cccnc3)cc2c1=O [Compound 20] | 100 to 500 |
| C[C@@H](CO)n1cnc2c(-c3cn[nH]c3)nc(-c3ccc(C(F)(F)F)nc3)cc2c1=O [Compound 62] | < 100 |
| Cc1ccc(-c2cc3c(=O)n([C@@H](C)COCc4ccccc4)cnc3c(-c3cccc(F)c3)n2)cc1 [Compound 40, 3-[(1S)-2-benzyloxy-1-methyl-ethyl]-8-(3-fluorophenyl)-6-(p-tolyl)pyrido[3,4-d]pyrimidin-4-one] | > 500 |
| CC(C)(O)Cn1cnc2c(-c3cccnc3)nc(-c3cccnc3C(F)(F)F)cc2c1=O [Compound 80] | > 500 |
| C[C@@H](CO)n1cnc2c(-c3cncc(F)c3)nc(-c3ccc(C(F)(F)F)cc3)cc2c1=O [Compound 5] | < 100 |

Next, values leading:

| IC50 [nM] | Compound |
| --- | --- |
| < 100 | Cn1cc(-c2nc(-c3ccc(C(F)(F)F)nc3)cc3c(=O)n([C@@H]4COC[C@@H]4O)cnc23)cn1 [Compound 130, 3-((3R,4R)-4-hydroxytetrahydrofuran-3-yl)-8-(1-methyl-1H-pyrazol-4-yl)-6-(6-(trifluoromethyl)pyridin-3-yl)pyrido[3,4-d]pyrimidin-4(3H)-one] |
| < 100 | CN1CC(O)C(n2cnc3c(-c4cccnc4)nc(-c4ccc(Cl)cc4)cc3c2=O)C1 (stereo not shown) [Compound 128, 6-(4-chlorophenyl)-3-(4-hydroxy-1-methylpyrrolidin-3-yl)-8-(pyridin-3-yl)pyrido[3,4-d]pyrimidin-4(3H)-one] |
| < 100 | O=c1c2cc(-c3ccc(C(F)(F)F)nc3)nc(-c3cccnc3)c2ncn1-c1cccnc1 [Compound 118, 3,8-di(pyridin-3-y1)-6-(6-(trifluoromethyl)pyridin-3-yl)pyrido[3,4-d]pyrimidin-4(3H)-one] |
| > 500 | C[C@@H](CO)n1cnc2c(-c3cccnc3)nc(C3CCCCC3)cc2c1=O [Compound 181, (S)-6-cyclohexyl-3-(1-hydroxypropan-2-yl)-8-(pyridin-3-yl)pyrido[3,4-d]pyrimidin-4(3H)-one] |
| 100 to 500 | C[C@@H](CO)n1cnc2c(-c3cccnc3)nc(-c3ccccn3)cc2c1=O [Compound 182, (S)-3-(1-hydroxypropan-2-yl)-6-(pyridin-2-yl)-8-(pyridin-3-yl)pyrido[3,4-d]pyrimidin-4(3H)-one] |
| < 100 | Cn1cc(-c2nc(-c3ccc(C(F)(F)F)cn3)cc3c(=O)n([C@@H]4COC[C@H]4O)cnc23)cn1 [Compound 138, 3-((3R,4S)-4-hydroxytetrahydrofuran-3-yl)-8-(1-methyl-1H-pyrazol-4-yl)-6-(5-(trifluoromethyl)pyridin-2-yl)pyrido[3,4-d]pyrimidin-4(3H)-one] |
| < 100 | Cn1cc(-c2nc(-c3ccc(C(F)(F)F)cn3)cc3c(=O)n([C@H]4COC[C@@H]4O)cnc23)cn1 [Compound 137, 3-((3S,4R)-4-hydroxytetrahydrofuran-3-yl)-8-(1-methyl-1H-pyrazol-4-yl)-6-(5-(trifluoromethyl)pyridin-2-yl)pyrido[3,4-d]pyrimidin-4(3H)-one] |
| < 100 | Cn1cc(-c2nc(-c3ccc(Cl)cc3)cc3c(=O)n([C@@H]4COC[C@H]4O)cnc23)cn1 [Compound 153, 6-(4-Chlorophenyl)-3-((3R,4S)-4-hydroxytetrahydrofuran-3-yl)-8-(1-methyl-1H-pyrazol-4-yl)pyrido[3,4-d]pyrimidin-4(3H)-one] |
| < 100 | O=c1[nH]cnc2c(-c3cccnc3)nc(-c3ccc(C(F)(F)F)nc3)cc12 [Compound 119, 8-(pyridin-3-y1)-6-(6-(trifluoromethyl)pyridin-3-yl)pyrido[3,4-d]pyrimidin-4(3H)-one] |
| < 100 | COC(=O)[C@H](C)n1cnc2c(-c3cccnc3)nc(-c3ccc(C(F)(F)F)nc3)cc2c1=O [Compound 127, Methyl (S)-2-(4-oxo-8-(pyridin-3-yl)-6-(6-(trifluoromethyl)pyridin-3-yl)pyrido[3,4-d]pyrimidin-3(4H)-yl)propanoate] |
| < 100 | C[C@@H](O)Cn1cnc2c(-c3cnn(C)c3)nc(-c3ccc(C(F)(F)F)cn3)cc2c1=O [Compound 141, (R)-3-(2-hydroxypropyl)-8-(1-methyl-1H-pyrazol-4-yl)-6-(5-(trifluoromethyl)pyridin-2-yl)pyrido[3,4-d]pyrimidin-4(3H)-one] |
| < 100 | Cn1cc(-c2nc(-c3cnc(C(F)(F)F)s3)cc3c(=O)n([C@@H]4COC[C@H]4O)cnc23)cn1 [Compound 172, 3-((3R,4S)-4-hydroxytetrahydrofuran-3-yl)-8-(1-methyl-1H-pyrazol-4-yl)-6-(2-(trifluoromethyl)thiazol-5-yl)pyrido[3,4-d]pyrimidin-4(3H)-one] |
| < 100 | C[C@@H](CO)n1cnc2c(N3CCCCC3)nc(-c3ccc(C(F)(F)F)nc3)cc2c1=O [Compound 175, (S)-3-(1-hydroxypropan-2-yl)-8-(piperidin-1-yl)-6-(6-(trifluoromethyl)pyridin-3-yl)pyrido[3,4-d]pyrimidin-4(3H)-one] |
| < 100 | C[C@@H](O)Cn1cnc2c(-c3cnn(C)c3)nc(-c3ccc(C(F)(F)F)nc3)cc2c1=O [Compound 108, (R)-3-(2-hydroxypropyl)-8-(1-methyl-1H-pyrazol-4-yl)-6-(6-(trifluoromethyl)pyridin-3-yl)pyrido[3,4-d]pyrimidin-4(3H)-one] |
| < 100 | C[C@@H](CO)n1cnc2c(N3CCOCC3)nc(-c3ccc(C(F)(F)F)nc3)cc2c1=O [Compound 178, (S)-3-(1-hydroxypropan-2-yl)-8-morpholino-6-(6-(trifluoromethyl)pyridin-3-yl)pyrido[3,4-d]pyrimidin-4(3H)-one] |
| < 100 | Cn1cc(-c2nc(-c3ccc(Cl)cc3)cc3c(=O)n([C@@H]4COC[C@@H]4O)cnc23)cn1 [Compound 131, 6-(4-chlorophenyl)-3-((3R,4R)-4-hydroxytetrahydrofuran-3-yl)-8-(1-methyl-1H-pyrazol-4-yl)pyrido[3,4-d]pyrimidin-4(3H)-one] |
